In ChEMBL document CHEMBL4118174, “The discovery of VU0486846: steep SAR from a series of M1 PAMs based on a novel benzomorpholine core” (Bioorg Med Chem Lett, 2018):
Residue numbers refer to the chain shown, from its start.

Experiments:
[1] = target: T1, Muscarinic acetylcholine receptor M1 (Homo sapiens, UniProt P11229); assay: Positive allosteric modulation of human muscarinic acetylcholine M1 receptor expressed in CHO cells assessed as potentiation of acetylcholine-induced calcium mobilization; type: functional, cell-based
T1 sequence (P11229 whole entry): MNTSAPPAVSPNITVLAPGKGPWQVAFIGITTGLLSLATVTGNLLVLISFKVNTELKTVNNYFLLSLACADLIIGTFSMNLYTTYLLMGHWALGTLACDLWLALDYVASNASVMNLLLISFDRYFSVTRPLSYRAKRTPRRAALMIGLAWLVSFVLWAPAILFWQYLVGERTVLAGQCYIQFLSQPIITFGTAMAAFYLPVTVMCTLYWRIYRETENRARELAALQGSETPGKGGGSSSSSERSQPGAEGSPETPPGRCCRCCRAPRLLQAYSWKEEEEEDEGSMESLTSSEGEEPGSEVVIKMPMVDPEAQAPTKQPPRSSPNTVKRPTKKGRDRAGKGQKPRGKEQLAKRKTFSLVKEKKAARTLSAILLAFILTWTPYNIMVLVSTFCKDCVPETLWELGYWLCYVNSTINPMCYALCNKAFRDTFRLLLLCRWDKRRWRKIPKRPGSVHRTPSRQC

[2] = target: T2, Muscarinic acetylcholine receptor M1 (Homo sapiens) (UniProt P11229); assay: Positive allosteric modulation of human muscarinic acetylcholine M1 receptor expressed in CHO cells assessed as potentiation of acetylcholine-induced calcium mobilization relative to acetylcholine; type: functional, cell-based
T2 sequence (whole entry): T1 sequence (P11229 whole entry)

[3] = Brain to plasma permeability coefficient, Kp of compound in Sprague-Dawley rat at 0.20 to 0.25 mg/kg administered as iv cassette dose measured at 0.25 hrs post dose; type: ADME, organism-based; conditions: for Kp: brain, 0.25 h; for Kp at 0.25 h: Sprague-Dawley, brain and plasma
[4] = Fraction unbound in human plasma; type: ADME, cell-free
[5] = Fraction unbound in rat plasma; type: ADME, cell-free
[6] = Brain to plasma permeability coefficient, Kp of compound in mouse; type: ADME
[7] = target: T1, Muscarinic acetylcholine receptor M1; assay: Positive allosteric modulation of human muscarinic acetylcholine M1 receptor; type: functional
[8] = tested on: Rattus norvegicus; assay: Cognitive enhancing effect in po dosed rat by novel object recognition test; type: functional; conditions: read-out: MED
[9] = target: T3, Muscarinic acetylcholine receptor M1 (Rattus norvegicus, UniProt P08482); assay: Positive allosteric modulation of rat muscarinic acetylcholine M1 receptor; type: functional
T3 sequence (P08482 whole entry): T1 sequence (P11229 whole entry) with A5V, T254S, P309S, R320K, A337G, I413V

[10] = Fraction unbound in plasma (unknown origin); type: ADME, cell-free
[11] = target: T1, Muscarinic acetylcholine receptor M1; assay: Positive allosteric modulation of human muscarinic acetylcholine M1 receptor expressed in CHO-NFAT cells assessed as potentiation of acetylcholine-induced calcium mobilization after 4 hrs by CCF4-AM dye-based assay; type: functional, cell-based

Row | SMILES | EC50 ([1]; read-out: EC50) [nM] | %max [2] [%] | also measured
1 | O=C(N[C@H]1CCCC[C@@H]1O)C1CN(Cc2ccc(Br)nc2)c2ccccc2O1 (some centres not stated) | 1200 | 91 | EC50 ([1]; read-out: pEC50 (converted)): 1070 nM
2 | O=C(N[C@H]1CCCC[C@@H]1O)C1Cc2ccccc2N(Cc2ccc(-n3cccn3)cc2)C1 (mixture of isomers) | 1400 | 75 | –
3 | O=C(N[C@H]1CCCC[C@@H]1O)C1CN(Cc2ccc(Cl)nc2)c2ccccc2O1 (some centres not stated) | 7600 | 73 | EC50 ([1]; read-out: pEC50 (converted)): 7080 nM
4 | O=C(N[C@H]1CCCC[C@@H]1O)C1CN(Cc2ccc(-n3cccn3)cc2)c2ccccc2O1 (mixture of isomers) | 920 | 77 | Kp [3]: 0.17; fraction unbound [4]: ≥ 0.11; Fu [5]: > 0.11; Kp [6]: 0.7
5 | O=C(N[C@H]1CCCC[C@@H]1O)[C@H]1CN(Cc2ccc(-n3cccn3)cc2)c2ccccc2O1 | – | – | EC50 [7]: 250 nM; minimal effective dose [8]: 3 mg/kg; EC50 [9]: 250 nM
6 | C=Cc1ccc(CN2CC(C(=O)N[C@H]3CCCC[C@@H]3O)Oc3ccccc32)cn1 (some centres not stated) | 700 | 89 | –
7 | O=C(N[C@H]1CCCC[C@@H]1O)C1CN(Cc2ccc(-n3cccc3)nc2)c2ccccc2O1 (some centres not stated) | 500 | 94 | –
8 | O=C(N[C@H]1CCCC[C@@H]1O)C1CN(Cc2ccc(-n3cccn3)cc2F)c2ccccc2O1 (mixture of isomers) | 1600 | 88 | Fu [10]: < 0.001
9 | COc1cccnc1NC(=O)C1CN(Cc2ccc(-n3cccn3)cc2)c2ccccc2O1 (configuration not stated) | 1700 | 80 | EC50 ([1]; read-out: pEC50 (converted)): 1620 nM
10 | O=C(N[C@H]1CCCC[C@@H]1O)C1CN(Cc2ccc(C3CC3)nc2)c2ccccc2O1 (some centres not stated) | 2500 | 90 | EC50 ([1]; read-out: pEC50 (converted)): 2240 nM
11 | O=C(Nc1ncccc1O)C1CN(Cc2ccc(-n3cccn3)cc2)c2ccccc2O1 (configuration not stated) | 710 | 75 | Kp at 0.25 h [3]: 0.11; EC50 ([1]; read-out: pEC50 (converted)): 692 nM
12 | CC(O)(CNC(=O)C1CN(Cc2ccc(-n3cccn3)cc2)c2ccccc2O1)C1CC1 (configuration not stated) | 1900 | 80 | –
13 | CN(C)c1ccc(CN2CC(C(=O)N[C@H]3CCCC[C@@H]3O)Oc3ccccc32)cn1 (some centres not stated) | 3800 | 89 | –
14 | CC(C)(O)CNC(=O)C1CN(Cc2ccc(-n3cccn3)cc2)c2ccccc2O1 (configuration not stated) | 6400 | 60 | EC50 ([1]; read-out: pEC50 (converted)): 5890 nM
15 | O=C(N[C@H]1CCCC[C@@H]1O)C1CN(Cc2ccc(-n3cccn3)cc2)c2cc(F)ccc2O1 (some centres not stated) | 320 | 88 | Kp [3]: 0.3 to 0.4; EC50 ([1]; read-out: pEC50 (converted)): 309 nM; fraction unbound [4]: < 0.01; fraction unbound [5]: < 0.01
16 | O=C(N[C@H]1CCCC[C@@H]1O)C1CN(Cc2ccc(-n3cccn3)nc2)c2ccccc2O1 (mixture of isomers) | 780 | 92 | EC50 ([1]; read-out: pEC50 (converted)): 708 nM; Fu [10]: < 0.001
17 | O=C(N[C@H]1CCOC[C@@H]1O)C1CN(Cc2ccc(-n3cccn3)cc2)c2ccccc2O1 (some centres not stated) | 190 | 91 | Kp at 0.25 h [3]: 0.08
18 | O=C(N[C@H]1CCCC[C@@H]1O)C1CN(Cc2ccc(-n3cccn3)cc2)c2c(F)cccc2O1 (some centres not stated) | 3180 to 3200 | 76 | Kp [3]: 0.3 to 0.4; EC50 ([1]; read-out: pEC50 (converted)): 3090 nM; fraction unbound [4]: < 0.01; fraction unbound [5]: < 0.01
19 | O=C(NC1CCOCC1)C1CN(Cc2ccc(-n3cccn3)cc2)c2ccccc2O1 (configuration not stated) | 6600 | 69 | Kp at 0.25 h [3]: 1

Row | SMILES | EC50 ([1]; read-out: EC50) [nM] | %max [2] [%] | also measured
20 | O=C(N[C@H]1CCC[C@@H]1O)C1CN(Cc2ccc(-n3cccn3)cc2)c2ccccc2O1 (some centres not stated) | 1200 | 77 | Kp at 0.25 h [3]: 0.09
21 | Cc1ccn(-c2ccc(CN3CC(C(=O)N[C@H]4CCCC[C@@H]4O)Oc4ccccc43)cn2)n1 (some centres not stated) | 670 | 91 | –
22 | O=C(N[C@H]1CCCC[C@@H]1O)C1CN(Cc2ccc(-n3ccnc3)nc2)c2ccccc2O1 (some centres not stated) | 290 | 87 | –
23 | Cc1ccc(CN2CC(C(=O)N[C@H]3CCCC[C@@H]3O)Oc3ccccc32)cn1 (some centres not stated) | 850 | 85 | EC50 ([1]; read-out: pEC50 (converted)): 813 nM
24 | O=C(N[C@H]1CCCCC1=O)C1CN(Cc2ccc(-n3cccn3)cc2)c2ccccc2O1 (some centres not stated) | 2700 | 78 | –
25 | O=C(N[C@H]1CCCC[C@@H]1O)C1CN(Cc2ccc(-n3cccn3)cc2)c2cccc(F)c2O1 (some centres not stated) | 140 | 89 | Kp [3]: 0.3 to 0.4
26 | Cn1cc(-c2ccc(CN3CC(C(=O)N[C@H]4CCCC[C@@H]4O)Oc4ccccc43)cn2)cn1 (some centres not stated) | 220 | 84 | –
27 | O=C(NC1CCCCC1)C1CN(Cc2ccc(-n3cccn3)cc2)c2ccccc2O1 (configuration not stated) | > 10000 | 35 | Kp at 0.25 h [3]: 1.1
28 | O=C(Nc1ncccc1F)C1CN(Cc2ccc(-n3cccn3)cc2)c2ccccc2O1 (configuration not stated) | 2300 | 81 | –
29 | Cn1nccc1-c1ccc(CN2CC(C(=O)N[C@H]3CCCC[C@@H]3O)Oc3ccccc32)cn1 (some centres not stated) | 1300 | 94 | –
30 | CC1(C(=O)N[C@H]2CCCC[C@@H]2O)CN(Cc2ccc(-n3cccn3)cc2)c2ccccc2O1 (mixture of isomers) | 7300 | 61 | –
31 | O=C(N[C@H]1CCCC[C@@H]1O)C1CN(Cc2ccc(-n3cccn3)cc2)c2ccc(F)cc2O1 (some centres not stated) | 2200 | 80 | Kp [3]: 0.3 to 0.4; fraction unbound [4]: < 0.01; fraction unbound [5]: < 0.01
32 | NC1CCCCC1NC(=O)C1CN(Cc2ccc(-n3cccn3)cc2)c2ccccc2O1 (configuration not stated) | 2300 | 62 | –
33 | O=C(N[C@H]1CCCC[C@@H]1O)C1CN(Cc2ccc(-n3cccn3)cc2)c2cc(Cl)ccc2O1 (mixture of isomers) | 2800 | 86 | Fu [10]: < 0.001
34 | Cc1ccc(Cc2cc3c(=O)n([C@H]4CCCC[C@@H]4O)cnc3c3ccccc23)cn1 [MK-7622] | – | – | EC50 [11]: < 100 nM
35 | O=C(N[C@H]1CCCC[C@@H]1O)C1CN(Cc2ccc(C(F)(F)F)nc2)c2ccccc2O1 (some centres not stated) | 3700 | 84 | –
36 | O=C(NCC(O)C(F)(F)F)C1CN(Cc2ccc(-n3cccn3)cc2)c2ccccc2O1 (configuration not stated) | 2200 | 78 | –
37 | O=C(N[C@H]1CCCC[C@@H]1O)C1CN(Cc2ccc(-n3cccc3)cc2)c2ccccc2O1 (mixture of isomers) | 2100 | 81 | Fu [10]: < 0.001
